Reference: patent US10501421B1, “Substituted benzimidazoles as modulators of Ras signaling” (VANDERBILT UNIVERSITY, priority 2017, dated 2019)
Structures can show the parent of a compound that is named as a salt.

What was measured:
[1] = molecular target: Ras GEF SOS (Son of Sevenless) (Homo sapiens, UniProt Q07889); assay: SOS-mediated nucleotide exchange on Ras (BODIPY-GDP fluorescence); assay type: biochemical; conditions: SOS-mediated exchange of BODIPY-GDP for GTP on Ras
Outline: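 Ras loaded with BODIPY-GDP was mixed in buffer with test compound, then GTP and SOS. Fluorescence change from labeled GDP/GTP exchange was followed over time, and rates came from single-exponential fits. EC50 came from a four-parameter fit of mean rate against compound concentration.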

Son of Sevenless (SOS) = molecular target: T1, Son of Sevenless (SOS) (Homo sapiens, UniProt Q07889); assay: Binding to SOS, fluorescence polarization anisotropy (FPA) probe displacement; conditions: displacement of FITC-conjugated probe (Example 285), affinity calculated from IC50
T1 sequence (Q07889 564-1049 limits assumed): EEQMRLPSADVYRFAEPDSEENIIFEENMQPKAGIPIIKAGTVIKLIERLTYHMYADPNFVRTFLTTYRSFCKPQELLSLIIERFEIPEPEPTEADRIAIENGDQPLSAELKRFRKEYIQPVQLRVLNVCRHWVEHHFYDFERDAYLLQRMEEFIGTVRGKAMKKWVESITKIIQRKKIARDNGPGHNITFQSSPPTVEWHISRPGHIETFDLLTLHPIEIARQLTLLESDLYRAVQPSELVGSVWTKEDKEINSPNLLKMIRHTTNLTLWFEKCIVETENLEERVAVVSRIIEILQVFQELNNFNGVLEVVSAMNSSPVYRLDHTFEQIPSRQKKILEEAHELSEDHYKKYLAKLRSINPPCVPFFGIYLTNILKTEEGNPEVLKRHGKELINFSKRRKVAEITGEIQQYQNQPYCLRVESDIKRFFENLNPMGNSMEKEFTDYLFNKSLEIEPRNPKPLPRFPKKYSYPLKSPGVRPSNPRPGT
Outline: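 A FITC-conjugated probe compound was incubated with SOS in buffer, and its displacement was tracked as a change in fluorescence anisotropy across a test-compound dose range. IC50 came from a four-parameter variable-slope fit, and binding affinity was calculated from it.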

Sequence of Ras GEF SOS (Son of Sevenless) (P01112 1-166 partner limits assumed, one chain of several): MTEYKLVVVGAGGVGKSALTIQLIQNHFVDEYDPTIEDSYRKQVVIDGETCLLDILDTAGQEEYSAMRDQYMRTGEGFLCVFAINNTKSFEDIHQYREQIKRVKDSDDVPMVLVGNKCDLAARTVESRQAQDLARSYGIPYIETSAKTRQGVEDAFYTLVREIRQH

SMILES	EC50 [1]	Ki (Son of Sevenless (SOS))
C=C[C@@H](N)c1cc(C)cc2c1nc(N1CCNCC1)n2Cc1cc(C)c(F)c(C)c1 [Example 163, (R)-1-(1-(4-fluoro-3,5-dimethylbenzyl)-6-methyl-2-(piperazin-1-yl)-1H-benzo[d]imidazol-4-yl)prop-2-en-1-amine trifluoroacetate]	1 to 5 µM	500 to 1000 nM
Cc1ccccc1-c1c(C)c(C)cc2c1nc(NCCN)n2Cc1cccc(C#N)c1 [Example 116, 3-((2-((2-aminoethyl)amino)-5,6-dimethyl-4-(o-tolyl)-1H-benzo[d]imidazol-1-yl)methyl)benzonitrile trifluoroacetate]	1 to 5 µM	1000 to 5000 nM
Cc1cc(Cn2c(N3CCNCC3)nc3c(OCCN4CCCC4)cccc32)ccc1F [Example 208, 1-(4-fluoro-3-methylbenzyl)-2-(piperazin-1-yl)-4-(2-(pyrrolidin-1-yl)ethoxy)-1H-benzo[d]imidazole]	< 1 µM	> 5000 nM
Cc1cc(NC[C@H]2CCNC2)c2nc(N3CCNCC3)n(Cc3cc(C)c(F)c(C)c3)c2c1 [Example 198, (S)-1-(4-fluoro-3,5-dimethylbenzyl)-6-methyl-2-(piperazin-1-yl)-N-(pyrrolidin-3-ylmethyl)-1H-benzo[d]imidazol-4-amine trifluoroacetate]	1 to 5 µM	500 to 1000 nM
Cc1cc2c(nc(N3CCNCC3)n2Cc2ccc(F)c(C)c2)c(-c2ccccc2C)n1 [Example 225, 1-(4-fluoro-3-methylbenzyl)-6-methyl-2-(piperazin-1-yl)-4-(o-tolyl)-1H-imidazo[4,5-c]pyridine]	5 to 30 µM	> 5000 nM
Cc1cc(-c2ccccc2C)c2ncn(Cc3cc(C)c(F)c(C)c3)c2c1 [Example 142, 1-(4-fluoro-3,5-dimethylbenzyl)-6-methyl-4-(o-tolyl)-1H-benzo[d]imidazole]	30 to 100 µM	> 5000 nM
Cc1cc(Cn2c(NCC3CNC3)nc3c(N4CCNCC4)cc(Cl)cc32)cc(C)c1F [Example 309, N-(azetidin-3-ylmethyl)-6-chloro-1-(4-fluoro-3,5-dimethylbenzyl)-4-(piperazin-1-yl)-1H-benzo[d]imidazol-2-amine]	1 to 5 µM	< 500 nM
Cc1cc2nc(NCCN)n(Cc3cc(C)c(F)c(C)c3)c2cc1C [Example 42, N^1-(1-(4-fluoro-3,5-dimethylbenzyl)-5,6-dimethyl-1H-benzo[d]imidazol-2-yl)ethane-1,2-diamine trifluoroacetate]	1 to 5 µM	1000 to 5000 nM
Cc1cc2nc(NCCN)n(CC3CCCCC3)c2cc1C [Example 38, N^1-(1-(cyclohexylmethyl)-5,6-dimethyl-1H-benzo[d]imidazol-2-yl)ethane-1,2-diamine trifluoroacetate]	5 to 30 µM	> 5000 nM
Cc1cc2c(cc1C)N(Cc1ccc(F)c(Cl)c1)C1=NCCCN12 [Example 213, 10-(3-chloro-4-fluorobenzyl)-7,8-dimethyl-2,3,4,10-tetrahydrobenzo[4,5]imidazo[1,2-a]pyrimidine]	1 to 5 µM	> 5000 nM
CC(C)c1ccc(-n2nccc2-c2cc(Cl)cc3c2nc(N2CCNCC2)n3Cc2ccc(F)c(Cl)c2)cc1 [Example 169, 6-chloro-1-(3-chloro-4-fluorobenzyl)-4-(1-(4-isopropylphenyl)-1H-pyrazol-5-yl)-2-(piperazin-1-yl)-1H-benzo[d]imidazole trifluoroacetate]	1 to 5 µM	> 5000 nM
O=C(O)Cc1cc(Cl)cc2c1nc(N1CCNCC1)n2Cc1ccc(F)c(Cl)c1 [Example 311, 2-(6-chloro-1-(3-chloro-4-fluorobenzyl)-2-(piperazin-1-yl)-1H-benzo[d]imidazol-4-yl)acetic acid]	< 1 µM	1000 to 5000 nM
Cc1cc2nc(NCCN(C)C)n(Cc3cc(C)c(F)c(C)c3)c2cc1C [Example 44, N^1-(1-(4-fluoro-3,5-dimethylbenzyl)-5,6-dimethyl-1H-benzo[d]imidazol-2-yl)-N^2,N^2-dimethylethane-1,2-diamine trifluoroacetate]	5 to 30 µM	> 5000 nM
Cc1cc(Cn2c(NCCN)nc3c(OCCN4CCCC4)cccc32)ccc1F [Example 207, N^1-(1-(4-fluoro-3-methylbenzyl)-4-(2-(pyrrolidin-1-yl)ethoxy)-1H-benzo[d]imidazol-2-yl)ethane-1,2-diamine]	< 1 µM	1000 to 5000 nM
Cc1cc(Cn2c(NCC3CNC3)nc3c(-c4ccccc4Cl)cc(Cl)cc32)cc(C)c1F [Example 305, N-(azetidin-3-ylmethyl)-6-chloro-4-(2-chlorophenyl)-1-(4-fluoro-3,5-dimethylbenzyl)-1H-benzo[d]imidazol-2-amine]	< 1 µM	< 500 nM
Cc1cc(OCCN2CCCC2)c2nc(N3CCNCC3)n(Cc3cc(C)c(F)c(C)c3)c2c1 [Example 316, 1-(4-fluoro-3,5-dimethylbenzyl)-6-methyl-2-(piperazin-1-yl)-4-(2-(pyrrolidin-1-yl)ethoxy)-1H-benzo[d]imidazole]	< 1 µM	1000 to 5000 nM
Cc1cc(Cn2c(N3CCNCC3)nc3c(-c4c(C)cccc4C#Cc4ccccc4Cl)cc(Cl)cc32)cc(C)c1F [Example 184, 6-chloro-4-(2-((2-chlorophenyl)ethynyl)-6-methylphenyl)-1-(4-fluoro-3,5-dimethylbenzyl)-2-(piperazin-1-yl)-1H-benzo[d]imidazole trifluoroacetate]	1 to 5 µM	500 to 1000 nM
NCCNc1nc2ccc(C(F)(F)F)cc2n1Cc1ccc(F)c(Cl)c1 [Example 72, N^1-(1-(3-chloro-4-fluorobenzyl)-6-(trifluoromethyl)-1H-benzo[d]imidazol-2-yl)ethane-1,2-diamine trifluoroacetate]	1 to 5 µM	1000 to 5000 nM
Cc1cc(Cn2c(N3CCNCC3)nc3c(-c4ccnn4-c4cccc5ccccc45)cc(Cl)cc32)cc(C)c1F [Example 177, 6-chloro-1-(4-fluoro-3,5-dimethylbenzyl)-4-(1-(naphthalen-1-yl)-1H-pyrazol-5-yl)-2-(piperazin-1-yl)-1H-benzo[d]imidazole trifluoroacetate]	30 to 100 µM	1000 to 5000 nM
Cc1ccc2nc(N3CCNCC3)n(Cc3ccc(F)c(Cl)c3)c2c1 [Example 61, 1-(3-chloro-4-fluorobenzyl)-6-methyl-2-(piperazin-1-yl)-1H-benzo[d]imidazole trifluoroacetate]	1 to 5 µM	1000 to 5000 nM
Cc1cc2nc(N3CCNC(=O)C3)n(Cc3cc(C)c(F)c(C)c3)c2cc1C [Example 332, 4-(1-(4-fluoro-3,5-dimethylbenzyl)-5,6-dimethyl-1H-benzo[d]imidazol-2-yl)piperazin-2-one]	5 to 30 µM	> 5000 nM
Cc1cc(N2CCNCC2)c2nc(N3CCNCC3)n(Cc3cc(C)c(F)c(C)c3)c2c1 [Example 190, 1-(4-fluoro-3,5-dimethylbenzyl)-6-methyl-2,4-di(piperazin-1-yl)-1H-benzo[d]imidazole trifluoroacetate]	< 1 µM	500 to 1000 nM
Fc1ccc(Cn2c(N3CCNCC3)nc3ccccc32)cc1Cl [Example 7, 1-(3-chloro-4-fluorobenzyl)-2-(piperazin-1-yl)-1H-benzo[d]imidazole trifluoroacetate]	5 to 30 µM	> 5000 nM
Clc1ccc(Cn2c(C3CCNCC3)nc3ccccc32)cc1 [Example 58, 1-(4-chlorobenzyl)-2-(piperidin-4-yl)-1H-benzo[d]imidazole trifluoroacetate]	5 to 30 µM	> 5000 nM
Cc1cc2c(nc(N3CCNCC3)n2Cc2ccc(F)c(C)c2)c(-c2ccc(CN)cc2)n1 [Example 229, (4-(1-(4-fluoro-3-methylbenzyl)-6-methyl-2-(piperazin-1-yl)-1H-imidazo[4,5-c]pyridin-4-yl)phenyl)methanamine]	1 to 5 µM	> 5000 nM
Cc1ccc2nc(N3CCNCC3)n(Cc3cc(C)c(F)c(C)c3)c2c1 [Example 323, 1-(4-fluoro-3,5-dimethylbenzyl)-6-methyl-2-(piperazin-1-yl)-1H-benzo[d]imidazole]	< 1 µM	1000 to 5000 nM
Cc1cc(Cn2c(N3CCNCC3)nc3c(OCCN(C)C)cccc32)ccc1F [Example 210, 2-((1-(4-fluoro-3-methylbenzyl)-2-(piperazin-1-yl)-1H-benzo[d]imidazol-4-yl)oxy)-N,N-dimethylethan-1-amine]	< 1 µM	> 5000 nM
Cc1cc(N2CCC(CN)C2)c2nc(N3CCNCC3)n(Cc3cc(C)c(F)c(C)c3)c2c1 (stereo not shown) [Example 189, (1-(1-(4-fluoro-3,5-dimethylbenzyl)-6-methyl-2-(piperazin-1-yl)-1H-benzo[d]imidazol-4-yl)pyrrolidin-3-yl)methanamine trifluoroacetate]	1 to 5 µM	500 to 1000 nM
Cc1cc(Cn2c(NCCN)nc3c(N4CCC(N)CC4)cc(Cl)cc32)cc(C)c1F [Example 298, N^1-(4-(4-aminopiperidin-1-yl)-6-chloro-1-(4-fluoro-3,5-dimethylbenzyl)-1H-benzo[d]imidazol-2-yl)ethane-1,2-diamine]	< 1 µM	< 500 nM
